Results on five compounds are retold here after patent US5459126A, “Method for decreasing calcium uptake by cells using selected polycations” (California Institute of Technology, priority 1993, dated 1995).

What all share (assay type): cell-based
Assay [1] relates to neonatal rat cardiomyocytes. As to the kind of experiment: 45Ca uptake by metabolically inhibited cardiomyocytes (iodoacetic acid + 2-deoxyglucose). The note with it: for inhibition of calcium uptake: iodoacetic acid and 2-deoxyglucose. The protocol: (§1) Ca fluxes were measured by an on-line isotopic technique (13). The myocytes were cultured onto scintillant-containing discs which were mounted in a flow cell so that the cells were in direct contact with perfusate. The flow cell was placed between two opposing […] tubes. Cell-associated Ca was then recorded in counts per minute. ^45 Ca^2+ is a low energy beta-emitter. The radioactivity contained within the perfusate is counted with very low efficiency (<5%) whereas that within the cells is counted with an efficiency of 39%. In all of the examples the cells were initially perfused with non isotopic solution to remove any debris. Perfusion with ^45 Ca^2+ containing solution was then commenced at 10 ml/minute and continued until the cells were labelled to asymptote. This normally took 25-30 minutes. The flow cell was then drained and refilled with a solution containing hydrogen peroxide. The cells were then incubated for 60 minutes with continuous recording of ^45 Ca labeling (no flow) prior to washout with non-isotopic perfusate.
(§2) At the end of each experiment the discs were removed from the flow cell, allowed to dry and the cells were scraped onto a pre-weighed piece of filter paper. This was placed in an oven (>100° C.) overnight and then weighed, permitting determination of the cellular dry weight. The specific activity of each isotopic solution was measured in a […] (Beckman Instruments) and cell-associated Ca was expressed in mmoles/kg dry cellular weight. The cell cultures were maintained at 37° C.
Exposure of neonatal rat cardiomycytes to 0.05 mM iodoacetic acid (IAA), as a glycolytic inhibitor, and 0.5 mM 2-deoxyglucose (2-DOG), as a non-metabolizable substrate, produces a graded depletion in intracellular ATP and induces a significant Ca leak. In the following example involving metabolic inhibition, these two compounds were included in the incubation medium. 2-DOG was added directly and IAA was added from a 1 M stock solution, dissolved in water. The concentration in the culture media was 0.5 mM for 2-DOG and 0.05 mM for IAA.

Another assay has as its system mammalian cells. As to the kind of experiment: calcium uptake inhibition in cell culture, noxious stimulus not specified.
Assay [2] deals with neonatal rat cardiomyocytes. In words: 45Ca uptake by cultured cardiomyocytes exposed to hydrogen peroxide (free radical attack), on-line isotopic technique. How it is done: Protamine is a strong polycationic polypeptide used extensively for heparin reversal after cardiopulmonary bypass. The drug is known to be negatively inotropic. The neonatal rat cardiomyocytes were cultured according to the procedure described by Frank et al.(13).
as §1, with “This normally took 25-30 minutes.” left out
After asymptotic labeling with ^45 Ca, the cells were perfused with a solution containing protamine sulfate at varying concentrations. […] The flow cell was then drained and refilled with a solution containing 50 μM H2 O2 and protamine. The procedure was repeated with protamine in varying concentrations: 1 μM (n=4); 5 μM (n=6) and 50 μM (n=6).
as §2

Where [3] appears, read: calcium leak caused by hydrogen peroxide.
The mark [4] stands for this setting: calcium leak caused by metabolic inhibition.

“Also recorded” adds a separate entry of the source.

For the compound polymyxin B sulfate [PXB], in assay [1] (100 μM), the “inhibition of calcium uptake” value was “substantially inhibited”.
On to `CCCCCCCCCCCC[N+](C)(C)C.[Br-]` [DDTMA, dodecyltrimethylammonium bromide], for which the “inhibition of calcium uptake” value in assay [1] (50 μM) is “significant inhibition of calcium uptake”.
As to Gentamicin, in the assay with mammalian cells, the “amount required to obtain any significant level of calcium uptake inhibition” value was 1.5 mM.
Regarding hexamedronium bromide [Polybrene], the “inhibition of calcium leak” value in assay [2] (setting [3]) and in assay [1] (setting [4]) was “inhibited the calcium leak” each time. The “threshold concentration above which inhibition was significant” value in assay [2] (setting [3]) and in assay [1] (setting [4]) was 25 µM throughout. The “effect on calcium uptake” value was “prevention of calcium uptake” in assay [2] (polybrene 25 μM, free radical attack (FIG. 4)) and “prevention of calcium uptake” in assay [1] (polybrene 25 μM, metabolically inhibited cells (FIG. 5)).
protamine: the “effect on Ca overload” value in assay [2] (protamine 1 μM, 50 μM H2O2, 60 min incubation) is listed as “no effect”; in assay [2] (protamine concentration above 5 μM (50 μM tested), 50 μM H2O2), “no additional effect”. In addition, the “effect on Ca overload / calcium uptake” value in assay [2] (protamine 5 μM, 50 μM H2O2, 60 min incubation) was “prevention of calcium uptake; also recorded: completely prevented the Ca overload”. Further, in assay [2] (protamine plus heparin, H2O2), the “effect of protamine on Ca overload after neutralizing its positive charge with heparin” value is “completely inhibited”. In assay [2] (protamine sulfate at varying concentrations, after asymptotic 45Ca labeling, before H2O2), the “Ca uptake on perfusion with the agent alone” value is on record as “did not significantly alter Ca uptake”. The “effect on calcium uptake” value in assay [1] (concentrations below 5 μM, 0.05 mM IAA + 0.5 mM 2-DOG) is “did not exert a significant effect”; in assay [1] (concentrations of 5 μM and higher, 0.05 mM IAA + 0.5 mM 2-DOG) it was “prevention of calcium uptake; also recorded: dramatic drop in calcium uptake”. Also, the “effect on calcium overload” value in the assay on mammalian cells (cell culture concentrations of 5 μM and above) was “completely prevent calcium overload”.
